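Tested at 5 concentrations; 48 h exposure; 96-well plates; endpoints linearly interpolated, else capped at highest concentration. TGI marks complete inhibition of growth.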
Key:
Assay in all cases: NCI tumour cell line growth inhibition, 48 h
SK-OV-3 ovarian = tested on: SK-OV-3 ovarian
A549 NSCLC = tested on: A549 NSCLC
SNB-75 CNS = tested on: SNB-75 CNS
SN12C renal = tested on: SN12C renal
NCI-H23 lung = tested on: NCI-H23 lung
MCF7 breast = tested on: MCF7 breast
DU-145 prostate = tested on: DU-145 prostate
OVCAR-5 ovarian = tested on: OVCAR-5 ovarian
SF-268 CNS = tested on: SF-268 CNS
MALME-3M melanoma = tested on: MALME-3M melanoma

SMILES	TGI (SK-OV-3 ovarian) [µM]	TGI (A549 NSCLC) [µM]	TGI (SNB-75 CNS) [µM]	TGI (SN12C renal) [µM]	TGI (NCI-H23 lung) [µM]	TGI (MCF7 breast) [µM]	TGI (DU-145 prostate) [µM]	TGI (OVCAR-5 ovarian) [µM]	TGI (SF-268 CNS) [µM]	TGI (MALME-3M melanoma) [µM]
C[As](C)SCC(NC(=O)CCC(N)C(=O)O)C(=O)NCC(=O)O.Cl.c1ccncc1 (stereo not given)	> 47.8	5.64	14.8	2.14	2.7	1.14	0.556	6.89	3.59	0.119
CC(=O)OCC1=C2C(OC(=O)C(C)C)CC3(COC(C)=O)OC3/C=C\C3(C)OC3C2OC1=O (stereo not given)	> 100	> 100	> 100	> 100	> 100	> 100	> 100	> 100	> 100	> 100
CN(C)C=NCc1ccc2c(c1)OCO2	> 100	> 100	> 100	> 100	> 100	> 100	> 100	> 100	> 100	> 100
COC(=O)C(=O)c1cc2ccccc2n1S(=O)(=O)c1ccccc1	> 100	> 100	> 100	> 100	> 100	> 100	> 100	> 100	> 100	> 100
Nc1nc(Cl)cc(NCC2(CO)CC(c3ccccc3)C2)n1 (stereo not given)	> 100	> 100	> 100	> 100	> 100	> 100	> 100	> 100	> 100	> 100
CSC1=N/C(=C\c2ccccc2)C(=O)N1CN1CCOCC1	> 100	> 100	> 100	> 100	> 100	> 100	> 100	> 100	> 100	> 100
C=CCC1(O)C(=O)OC2C(O)COC21O (stereo not given)	> 100	> 100	> 100	> 100	> 100	> 100	> 100	> 100	> 100	> 100
c1ccc(CNCCCNCCCCNCCCNCc2ccccc2)cc1	31	45.5	21.7	15.5	12.3	14.4	25.4	16.2	25.6	5.01
Cc1cc(O)c2cc3c(O)c(O)ccc3cc2c1	9.82	> 26.3	8.95	17.3	6	> 87	> 50.8	13.5	8.51	3.52
COC(=O)c1ccc(-n2c(C)nc(=O)c(-c3ccccc3)c2C)cc1	> 100	> 100	> 100	> 100	> 100	> 100	> 100	> 100	> 100	> 100
C=CCN1C(=O)/C(=C/c2ccccc2)N=C1SC1OC(COC(C)=O)C(OC(C)=O)C(OC(C)=O)C1OC(C)=O (stereo not given)	> 100	> 100	67.8	71.3	87.6	> 100	71.6	> 100	53.4	62.4
O=C1NC(=O)/C(=C/c2ccc(S(=O)(=O)N/N=C/c3ccccc3)cc2)N1	> 100	> 100	> 100	> 100	> 100	> 100	> 100	> 100	> 100	> 100
CC(=O)c1c2c(cc3c1CC1(C3)Cc3ccc4c(c3C1=O)CCC4)CCC2 (stereo not given)	> 100	> 100	> 100	> 100	> 100	> 100	> 100	> 100	> 100	> 100
O=S(=O)(c1ccccc1)[C@@H]1[C@H]2C=C[C@](CS)(O2)[C@H]1S(=O)(=O)c1ccccc1	> 100	> 100	> 100	> 100	> 100	> 100	> 100	> 100	> 100	> 100
O=C1C=Cc2c1csc2Br	> 100	> 100	> 100	> 100	> 100	95.9	> 100	> 100	> 100	> 100
S=C1NCCN1C(=S)NC1CCCCC1	> 100	99.1	72.1	> 100	59.2	> 100	> 100	> 100	> 100	64.9
Nc1cccc(/C=C/CN2CCN(CCOC(c3ccccc3)c3ccccc3)CC2)c1	27	29.7	22.7	36	30.7	29.4	26.4	30.5	35.7	34.7

SMILES	TGI (SK-OV-3 ovarian) [µM]	TGI (A549 NSCLC) [µM]	TGI (SNB-75 CNS) [µM]	TGI (SN12C renal) [µM]	TGI (NCI-H23 lung) [µM]	TGI (MCF7 breast) [µM]	TGI (DU-145 prostate) [µM]	TGI (OVCAR-5 ovarian) [µM]	TGI (SF-268 CNS) [µM]	TGI (MALME-3M melanoma) [µM]
Cc1ccc(N(C)S(=O)(=O)c2ccccc2)cc1	> 100	> 100	> 100	> 100	> 100	> 100	> 100	> 100	> 100	> 100
C[C@]12CC[C@H]3[C@@H](CC=C4C[C@@H](O)CC[C@@]43C)[C@@H]1C[C@H](N1CCOCC1)[C@@H]2O	> 100	> 100	97.4	> 100	> 100	> 100	> 100	> 100	> 100	> 100
N#CC12CC=C(c3ccccc3)N=C1NC(c1ccccc1)=CC2 (stereo not given)	> 100	> 100	> 100	> 100	> 100	> 100	> 100	> 100	> 100	> 100
CC(=O)C1=C(C)N(c2ccc(C)cc2)C2(O)C=CC(=O)C3=C(O)c4ccccc4C(=O)C312 (stereo not given)	> 100	> 100	49.9	36.9	52.5	> 100	> 100	56.2	62.4	5.07
CCCC1=NC(C(F)(F)F)(C(F)(F)F)N=C(N2CCOCC2)O1	> 100	> 100	> 100	> 100	> 100	> 100	> 100	> 100	> 100	> 100
Cc1ccc(S(=O)(=O)Nn2c(C)cc3ccc(S(=O)(=O)Nc4ccccc4[N+](=O)[O-])cc3c2=O)cc1	> 100	> 100	> 100	> 100	> 100	> 100	> 100	> 100	> 100	> 100
CCCC(=O)n1[nH]c(=O)n(C(C)(C)C)c1=O	> 100	> 100	> 100	> 100	> 100	> 100	> 100	> 100	> 100	> 100
Cc1cc(CN(Cc2ccccc2)Cc2nc3ccccc3[nH]2)c(O)c(CN(Cc2nc3ccccc3[nH]2)Cc2nc3ccccc3[nH]2)c1	> 52.3	> 95.1	> 72.3	> 100	> 79.5	8.87	> 100	> 100	> 100	> 93.2
Nc1ncnc2c1ccn2CC=C(CO)CO	> 100	> 100	> 100	> 100	> 100	> 100	> 100	> 100	> 100	> 100
Cn1c2c(c3ccccc31)CC(=O)N1CCCC(C1)CC21OCCO1 (stereo not given)	> 100	> 100	> 100	> 100	> 100	> 100	> 100	> 100	> 100	> 100
Oc1ccc(NCc2cc(O)ccc2O)cc1	36.7	> 100	33	39.3	38.7	34.2	32.9	35.9	34.8	34.3
[O-]/N=N\c1on[n+](CCc2ccccc2)c1Cc1c(/N=N/[O-])on[n+]1CCc1ccccc1	> 100	> 100	40.2	> 100	61.3	> 100	> 100	> 100	> 100	66.6
CC(C)[Si](Oc1cc2c3c(ccc2c(O)c1[C@@H](C)CO[Si](C)(C)C(C)(C)C)C(C)(C)CCC3)(C(C)C)C(C)C	> 100	> 100	> 100	> 100	> 100	> 100	> 100	> 100	> 100	> 100
COC(=N)c1ncn(Cc2ccccc2)c1N	> 100	> 100	> 100	> 100	> 100	> 100	> 100	> 100	> 100	> 100
c1ccc2c(c1)ncn2CCn1ccnc1	> 100	> 100	> 100	> 100	> 100	> 100	> 100	> 100	> 100	> 100
CC(=O)N1N=C(c2ccc3ccccc3c2O)CC1c1ccc(Cl)cc1Cl (stereo not given)	> 100	> 100	> 100	> 100	> 100	> 100	> 100	> 100	93.1	> 100
c1ccc2c(c1)ccc1nc3ccccn3c12	> 100	> 100	> 100	> 100	> 100	> 100	> 100	> 100	> 100	> 100

From PubChem BioAssay (NCI)
